Measurements from ChEMBL document CHEMBL6182855, “Design and synthesis of phenanthridinone and phenanthridine derivatives and their radiosensitizing activity” (2025).
Active and inactive are the calls of the source. The calls are words filed in the database; no cut-off is given here.

How the values were obtained:
[1] = target: Tyrosyl-DNA phosphodiesterase 1 (Homo sapiens) (UniProt Q9NUW8); experiment: Inhibition of TDP1 (unknown origin) using (5'-FAM-AGGATCTAAAAGACTT-BHQ-3') as substrate at 100 uM by fluorescence assay
Tyrosyl-DNA phosphodiesterase 1 (Homo sapiens), sequence (Q9NUW8 whole entry): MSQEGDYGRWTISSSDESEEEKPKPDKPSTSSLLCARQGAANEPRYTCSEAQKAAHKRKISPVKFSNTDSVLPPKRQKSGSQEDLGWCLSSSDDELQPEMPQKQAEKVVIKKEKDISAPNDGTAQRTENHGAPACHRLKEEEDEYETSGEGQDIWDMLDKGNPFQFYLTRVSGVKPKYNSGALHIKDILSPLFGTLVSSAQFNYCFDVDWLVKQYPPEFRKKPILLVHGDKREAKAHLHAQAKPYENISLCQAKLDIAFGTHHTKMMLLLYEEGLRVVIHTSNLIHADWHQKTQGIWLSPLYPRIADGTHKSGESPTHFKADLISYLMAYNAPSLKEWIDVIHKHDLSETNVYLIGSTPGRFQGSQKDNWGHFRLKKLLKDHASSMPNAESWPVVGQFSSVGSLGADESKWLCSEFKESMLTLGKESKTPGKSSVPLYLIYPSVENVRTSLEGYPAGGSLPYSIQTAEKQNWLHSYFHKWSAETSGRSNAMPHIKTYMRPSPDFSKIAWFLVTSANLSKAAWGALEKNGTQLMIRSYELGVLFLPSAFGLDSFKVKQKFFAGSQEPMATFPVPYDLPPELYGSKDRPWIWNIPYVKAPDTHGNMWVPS

HCT-116 [2] = experiment: Cytotoxicity against human HCT-116 cells assessed as cell growth inhibition incubated for 72 hrs by CCK-8 assay; assay type: functional
HCT-116 [3] = experiment: Radiosensitizing activity in human HCT-116 cells assessed as reduction in cell viability at 0.5 uM co-treated with IR-2 Gy incubated for 72 hrs by CCK-8 assay (reference value: 37%); assay type: functional
HCT-116 [4] = experiment: Cytotoxicity against human HCT-116 cells assessed as cell survival at 0.5 uM incubated for 72 hrs by CCK-8 assay relative to control; assay type: functional; settings: read-out: Activity
HCT-116 [5] = experiment: Cytotoxicity against human HCT-116 cells assessed as cell killing at 0.5 uM incubated for 72 hrs by CCK-8 assay relative to control; assay type: functional
HCT-116 [6] = experiment: Cytotoxicity against human HCT-116 cells at 0.5 uM incubated for 72 hrs by CCK-8 assay; assay type: functional, cell-based
HCT-116 [7] = experiment: Radiosensitizing activity in human HCT-116 cells assessed as cell killing at 0.5 uM co-treated with IR-2 Gy incubated for 72 hrs by CCK-8 assay (reference value: 37%); assay type: functional
HCT-116 [8] = experiment: Induction of cell cycle arrest in human HCT-116 cells assessed as accumulation of cells at S phase at 5 uM incubated for 24 hrs by PI staining based flow cytometric analysis (reference value: 17.14%); assay type: functional
HCT-116 [9] = experiment: Induction of cell cycle arrest in human HCT-116 cells assessed as accumulation of cells at G0/G1 phase at 5 uM incubated for 24 hrs by PI staining based flow cytometric analysis (reference value: 58.75%); assay type: functional
HCT-116 [10] = experiment: Induction of apoptosis in human HCT-116 cells assessed as late apoptotic cells at 5 uM incubated for 24 hrs in presence of IR-4 Gy by AnnexinV-FITC/PI staining based flow cytometry (reference value: 0.93%); assay type: functional
HCT-116 [11] = experiment: Induction of ROS generation in human HCT-116 cells assessed as fold increase in ROS level at 10 uM in presence of IR 4 Gy by DCFH-DA staining based ELISA; assay type: functional
HCT-116 [12] = experiment: Induction of cell cycle arrest in human HCT-116 cells assessed as accumulation of cells at G2/M phase at 5 uM incubated for 24 hrs in presence of IR-4 Gy by PI staining based flow cytometric analysis (reference value: 29.00 %); assay type: functional
HCT-116 [13] = experiment: Radiosensitization activity in human HCT-116 cells assessed as cell killing at 0.25 uM incubated for 24 hrs in presence of IR-5 Gy by crystal violet staining based colony formation assay relative to control; assay type: functional
HCT-116 [14] = experiment: Induction of ROS generation in human HCT-116 cells at 5 to 10 uM in presence of IR 4 Gy by DCFH-DA staining based ELISA; assay type: functional, cell-based; settings: dose 5-10 µM
HCT-116 [15] = experiment: Induction of DNA damage in human HCT-116 cells assessed as increase in gamma-H2AX fluorescence intensity at 10 uM incubated for 6 hrs by DAPI staining based immunofluorescence microscopic analysis; assay type: functional, cell-based
HCT-116 [16] = experiment: Radiosensitization activity in human HCT-116 cells incubated for 24 hrs in presence of IR-2 Gy by crystal violet staining based colony formation assay; assay type: functional, cell-based; settings: dose 0.1-0.5 µM
HCT-116 [17] = experiment: Induction of ROS generation in human HCT-116 cells at 5 to 10 uM by DCFH-DA staining based ELISA; assay type: functional, cell-based; settings: dose 5-10 µM
HCT-116 [18] = experiment: Inhibition of colony formation in human HCT-116 cells at 0.25 uM incubated for 24 hrs by crystal violet staining based colony formation assay relative to control; assay type: functional
HCT-116 [19] = experiment: Radiosensitization activity in human HCT-116 cells assessed as combination index at 0.25 uM incubated for 24 hrs in presence of IR-5 Gy by crystal violet staining based colony formation assay; assay type: functional
HCT-116 [20] = experiment: Induction of apoptosis in human HCT-116 cells assessed as early apoptotic cells at 5 uM incubated for 24 hrs by AnnexinV-FITC/PI staining based flow cytometry (reference value: 1.41%); assay type: functional
HCT-116 [21] = experiment: Radiosensitization activity in human HCT-116 cells assessed as combination index at 0.1 to 0.5 uM incubated for 24 hrs in presence of IR-2 Gy by crystal violet staining based colony formation assay; assay type: functional; settings: dose 0.1-0.5 µM
HCT-116 [22] = experiment: Induction of ROS generation in human HCT-116 cells assessed as fold increase in ROS level at 5 uM in presence of IR 4 Gy by DCFH-DA staining based ELISA; assay type: functional
HCT-116 [23] = experiment: Induction of cell cycle arrest in human HCT-116 cells assessed as accumulation of cells at G2/M phase at 5 uM incubated for 24 hrs by PI staining based flow cytometric analysis (reference value: 23.42 %); assay type: functional
HCT-116 [24] = experiment: Induction of apoptosis in human HCT-116 cells assessed as viable cells at 5 uM incubated for 24 hrs in presence of IR-4 Gy by AnnexinV-FITC/PI staining based flow cytometry (reference value: 94.08%); assay type: functional; settings: read-out: Activity
HCT-116 [25] = experiment: Induction of apoptosis in human HCT-116 cells assessed as late apoptotic cells at 5 uM incubated for 24 hrs by AnnexinV-FITC/PI staining based flow cytometry (reference value: 0.41%); assay type: functional
HCT-116 [26] = experiment: Induction of cell cycle arrest in human HCT-116 cells assessed as accumulation of cells at G0/G1 phase at 5 uM incubated for 24 hrs in presence of IR-4 Gy by PI staining based flow cytometric analysis (reference value: 56.89%); assay type: functional
HCT-116 [27] = experiment: Induction of apoptosis in human HCT-116 cells assessed as early apoptotic cells at 5 uM incubated for 24 hrs in presence of IR-4 Gy by AnnexinV-FITC/PI staining based flow cytometry (reference value: 4.88%); assay type: functional
HCT-116 [28] = experiment: Induction of cell cycle arrest in human HCT-116 cells assessed as accumulation of cells at S phase at 5 uM incubated for 24 hrs in presence of IR-4 Gy by PI staining based flow cytometric analysis (reference value: 13.71%); assay type: functional
HCT-116 [29] = experiment: Induction of apoptosis in human HCT-116 cells assessed as viable cells at 5 uM incubated for 24 hrs by AnnexinV-FITC/PI staining based flow cytometry (reference value: 98.05%); assay type: functional; settings: read-out: Activity
HCT-116 [30] = experiment: Induction of DNA damage in human HCT-116 cells assessed as increase in gamma-H2AX fluorescence intensity at 10 uM incubated for 6 hrs in presence of IR 4 Gy by DAPI staining based immunofluorescence microscopic analysis; assay type: functional, cell-based

## COc1cc2c(=O)n(CCN3CCOCC3)c3c4c(ccc3c2cc1OC)OCO4
[1]
  inhibition: inactive
HCT-116 [2]
  GI50: 3.22 µM

## COc1cc2c(Nc3ccc(C(=O)N4CCN(C)CC4)cc3)nc3c4c(ccc3c2cc1OC)OCO4
[1]
  inhibition: inactive
HCT-116 [2]
  GI50: 3.32 µM

## COc1cc2c(=O)n(CCN3CCN(C)CC3)c3c4c(ccc3c2cc1OC)OCO4
[1]
  inhibition: inactive
HCT-116 [2]
  GI50: 9.95 µM

## COc1cc2c(=O)n(CC(=O)N3CCOCC3)c3c4c(ccc3c2cc1OC)OCO4
[1]
  inhibition: inactive
HCT-116 [2]
  GI50: 54.2 µM

## COc1cc2c(=O)n(Cc3ccc(OC(F)(F)F)cc3)c3c4c(ccc3c2cc1OC)OCO4
[1]
  inhibition: inactive
HCT-116 [2]
  GI50: 4.79 µM

## COc1cc2c(NCCN3CCCC3)nc3c4c(ccc3c2cc1OC)OCO4
[1]
  inhibition: inactive
HCT-116 [3]
  Activity: Active
HCT-116 [2]
  GI50: 2.11 µM
HCT-116 [4]
  viability at 0.5 µM: ~80%

## COc1cc2c(Nc3ccc(C(=O)N4CCCC4)cc3)nc3c4c(ccc3c2cc1OC)OCO4
[1]
  inhibition: inactive
HCT-116 [2]
  GI50: 1.46 µM

## COc1cc2c(=O)n(CCN3CCCC3)c3c4c(ccc3c2cc1OC)OCO4
[1]
  inhibition: inactive
HCT-116 [2]
  GI50: 0.56 µM
HCT-116 [5]
  Activity: ~100%

## COc1cc2c(=O)n(CCN3CCCCC3)c3c4c(ccc3c2cc1OC)OCO4
[1]
  inhibition: inactive
HCT-116 [6]
  Activity: inactive
HCT-116 [2]
  GI50: 0.81 µM
HCT-116 [7]
  Activity: 55%

## COc1cc2c(=O)n(CCc3cccs3)c3c4c(ccc3c2cc1OC)OCO4
[1]
  inhibition: inactive
HCT-116 [2]
  GI50: 44.8 µM

## COc1cc2c(=O)n(Cc3ccc(C(=O)O)cc3)c3c4c(ccc3c2cc1OC)OCO4
[1]
  inhibition: inactive
HCT-116 [2]
  GI50: > 100 µM

## COc1cc2c(N3CCN(c4ncccn4)CC3)nc3c4c(ccc3c2cc1OC)OCO4
HCT-116 [8]
  Activity: 23.9%
HCT-116 [9]
  Activity: 36.95%
HCT-116 [10]
  Activity: 3.11%
HCT-116 [11]
  fold change (FC): 1.8
[1]
  inhibition: inactive
HCT-116 [12]
  Activity: 43.16%
HCT-116 [13]
  Activity: ~99%
HCT-116 [14]
  Activity: Active
HCT-116 [15]
  Activity: Active
HCT-116 [16]
  Activity: Dose-dependent-effect
HCT-116 [3]
  Activity: <20%
HCT-116 [17]
  Activity: inactive
HCT-116 [18]
  inhibition at 0.25 µM: 30%
HCT-116 [19]
  CI: 0.29
HCT-116 [20]
  Activity: 1.75%
HCT-116 [21]
  CI: 0.4
HCT-116 [22]
  fold change (FC): 1.4
HCT-116 [23]
  Activity: 37.67%
HCT-116 [24]
  viability at 5 µM: 89.4%
HCT-116 [2]
  GI50: 6.08 µM
HCT-116 [25]
  Activity: 2.1%
HCT-116 [26]
  Activity: 23.41%
HCT-116 [27]
  Activity: 7.21%
HCT-116 [28]
  Activity: 22.09%
HCT-116 [29]
  viability at 5 µM: 95.2%
HCT-116 [30]
  Activity: Active
HCT-116 [4]
  viability at 0.5 µM: 64%

## COc1cc2c(Nc3ccc(C(=O)N(C)C)cc3)nc3c4c(ccc3c2cc1OC)OCO4
[1]
  inhibition: inactive
HCT-116 [2]
  GI50: 7.79 µM

## COc1cc2c(Nc3ccc(C(=O)N4CCOCC4)cc3)nc3c4c(ccc3c2cc1OC)OCO4
[1]
  inhibition: inactive
HCT-116 [2]
  GI50: 5.26 µM

## COc1cc2c(OCCN(C)C)nc3c4c(ccc3c2cc1OC)OCO4
[1]
  inhibition: inactive
HCT-116 [2]
  GI50: 0.32 µM
HCT-116 [5]
  Activity: ~100%

## COc1cc2c(NCCN3CCN(C)CC3)nc3c4c(ccc3c2cc1OC)OCO4
[1]
  inhibition: inactive
HCT-116 [2]
  GI50: 0.85 µM

## COc1cc2c(NCCN(C)C)nc3c4c(ccc3c2cc1OC)OCO4
[1]
  inhibition: inactive
HCT-116 [2]
  GI50: 0.47 µM
HCT-116 [5]
  Activity: ~100%

## COc1cc2c(=O)n(CCn3cccc3)c3c4c(ccc3c2cc1OC)OCO4
[1]
  inhibition: inactive
HCT-116 [2]
  GI50: 17.3 µM

## COc1cc2c(=O)n(CCNC(=O)OC(C)(C)C)c3c4c(ccc3c2cc1OC)OCO4
[1]
  inhibition: inactive
HCT-116 [2]
  GI50: > 100 µM

## COc1cc2c(=O)n(CCn3cccn3)c3c4c(ccc3c2cc1OC)OCO4
[1]
  inhibition: inactive
HCT-116 [2]
  GI50: > 100 µM

## COc1cc2c(OCCN3CCN(C)CC3)nc3c4c(ccc3c2cc1OC)OCO4
[1]
  inhibition: inactive
HCT-116 [2]
  GI50: 7.88 µM

## COc1cc2c(=O)n(CCN(C)C)c3c4c(ccc3c2cc1OC)OCO4
[1]
  inhibition: inactive
HCT-116 [2]
  GI50: 0.55 µM
HCT-116 [5]
  Activity: ~100%

## COc1cc2c(Nc3ccc(C(=O)N4CCC(OC)CC4)cc3)nc3c4c(ccc3c2cc1OC)OCO4
[1]
  inhibition: inactive
HCT-116 [2]
  GI50: 2.76 µM

## COc1cc2c(OCCN3CCCC3)nc3c4c(ccc3c2cc1OC)OCO4
[1]
  inhibition: inactive
HCT-116 [2]
  GI50: 0.31 µM
HCT-116 [5]
  Activity: ~100%

## COc1ccc(Cn2c(=O)c3cc(OC)c(OC)cc3c3ccc4c(c32)OCO4)cc1
[1]
  inhibition: inactive
HCT-116 [2]
  GI50: > 100 µM
